Measured values reported in US7741479B2, “Urea inhibitors of MAP kinases” (Locus Pharmaceuticals, Inc., priority 2004, dated 2010).

These compounds were tested against T1, p38 (Homo sapiens, UniProt Q16539) (assay: Protein Kinase Assay (33P incorporation from γ-[33P]ATP into GST-ATF-2 substrate)). Conditions: compound at 3 μM; read-out: Protein Kinase (% Inhibition at 3 μM).
T1 construct: made in house
Format: biochemical
Outline: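 Non-activated human p38 (10 nM) was preincubated with compounds for 20 min at 30° C, then GST-ATF-2 (aa 19-96) and γ-[33P]ATP were added for 70 min at 30° C. Reactions were stopped with phosphoric acid; phosphorylated substrate was captured on phosphocellulose and scintillation-counted.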

T1 sequence (Q16539 whole entry): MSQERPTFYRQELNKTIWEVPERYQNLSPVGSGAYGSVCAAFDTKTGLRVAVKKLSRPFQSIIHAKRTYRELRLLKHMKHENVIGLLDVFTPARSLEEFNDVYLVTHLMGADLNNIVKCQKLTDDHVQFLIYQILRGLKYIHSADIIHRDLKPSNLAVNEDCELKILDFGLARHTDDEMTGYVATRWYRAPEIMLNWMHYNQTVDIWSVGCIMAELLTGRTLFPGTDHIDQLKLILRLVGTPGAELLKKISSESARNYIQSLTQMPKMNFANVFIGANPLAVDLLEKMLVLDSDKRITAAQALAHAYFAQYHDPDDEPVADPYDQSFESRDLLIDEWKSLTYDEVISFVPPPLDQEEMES

Structure (SMILES) | inhibition at 3 µM
CC(C)(C)c1cc(C(=O)N2CCNS(=O)(=O)CC2)c(NC(=O)Nc2ccc(C#N)cc2Cl)s1 [Example 92, 1-[5-tert-Butyl-3-(1,1-dioxo-1λ^6-[1,2,5]thiadiazepane-5-carbonyl)thiophen-2-yl]-3-(4-cyano-2-chlorophenyl)urea] | 76 to 100%
CC(C)(C)c1cc(C(=O)N2CCNS(=O)(=O)CC2)c(NC(=O)Nc2ccc3c(c2)OCO3)s1 [Example 93, 1-Benzo[1,3]dioxol-5-yl-3-[5-tert-butyl-3-(1,1-dioxo-1λ^6-[1,2,5]thiadiazepane-5-carbonyl)thiophen-2-yl]urea] | 76 to 100%
CC(C)(C)c1cc(C(=O)N2CCNS(=O)(=O)CC2)c(NC(=O)Nc2ccc3c(c2)OC(F)(F)O3)s1 [Example 94, 1-[5-tert-Butyl-3-(1,1-dioxo-1λ^6-[1,2,5]thiadiazepane-5-carbonyl)thiophen-2-yl]-3-(2,2-difluorobenzo[1,3]dioxol-5-yl)urea] | 76 to 100%
COc1ccc(NC(=O)Nc2sc(C(C)(C)C)cc2C(=O)N2CCNS(=O)(=O)CC2)cc1Cl [Example 95, 1-[5-tert-Butyl-3-(1,1-dioxo-1λ^6-[1,2,5]thiadiazepane-5-carbonyl)thiophen-2-yl]-3-(3-chloro-4-methoxyphenyl)urea] | 76 to 100%

Second part, the compound after the results:

inhibition at 3 µM | Structure (SMILES)
76 to 100% | CC(C)(C)c1cc(C(=O)N2CCNC(=O)CC2)c(NC(=O)Nc2ccc(C#N)cc2Cl)s1 [Example 90, 1-[5-tert-Butyl-3-(5-oxo-[1,4]diazepane-1-carbonyl)thiophen-2-yl]-3-(2-chloro-4-cyanophenyl)urea]
76 to 100% | CC(C)(C)c1cc(C(=O)N2CCNS(=O)(=O)CC2)c(NC(=O)Nc2ccc(Cl)c(Cl)c2)s1 [Example 96, 1-[5-tert-Butyl-3-(1,1-dioxo-1λ^6-[1,2,5]thiadiazepane-5-carbonyl)thiophen-2-yl]-3-(3,4-dichlorophenyl)urea]

Same assay, conditions: same procedure at 0.5 μM

Structure (SMILES) | inhibition at 0.5 µM
CC(C)(C)c1cc(C(=O)NCc2cccnc2)c(NC(=O)Nc2cccc3ccccc23)s1 [Example 131, 5-tert-Butyl-2-(3-naphthalen-1-yl-ureido)thiophene-3-carboxylic acid (pyridin-3-ylmethyl)amide] | 76 to 100%
CC(C)(C)c1cc(C(=O)NCc2cccnc2)c(NC(=O)Nc2ccc3ccccc3c2)s1 [Example 132, 5-tert-Butyl-2-(3-naphthalen-2-yl-ureido)thiophene-3-carboxylic acid (pyridin-3-ylmethyl)amide] | 76 to 100%

Further lines, results first:

inhibition at 0.5 µM | Structure (SMILES)
76 to 100% | CC(C)(C)c1cc(C(=O)NCc2cccnc2)c(NC(=O)Nc2cccc(Cl)c2Cl)s1 [Example 130, 5-tert-butyl-2-[3-(2,3-dichlorophenyl)ureido]thiophene-3-carboxylic acid (pyridin-3-ylmethyl)amide]
76 to 100% | CC(C)(C)c1cc(C(=O)Nc2ccc3nn[nH]c3c2)c(NC(=O)Nc2cccc(Cl)c2Cl)s1 [Example 133, 5-tert-Butyl-2-[3-(2,3-dichlorophenyl)ureido]thiophene-3-carboxylic acid (3H-benzotriazol-5-yl)amide]
76 to 100% | CCC1C(=O)NCCN1C(=O)c1cc(C(C)(C)C)sc1NC(=O)Nc1cccc(Cl)c1Cl (centres unmarked) [Example 134, 1-[5-tert-Butyl-3-(2-ethyl-3-oxopiperazine-1-carbonyl)thiophen-2-yl]-3-(2,3-dichlorophenyl)urea]
76 to 100% | C[C@H]1C(=O)NCCN1C(=O)c1cc(C(C)(C)C)sc1NC(=O)Nc1cccc(Cl)c1Cl [Example 135, 1-[5-tert-Butyl-3-(2-methyl-3-oxopiperazine-1-carbonyl)thiophen-2-yl]-3-(2,3-dichlorophenyl)urea]
76 to 100% | CC(C)(C)c1cc(C(=O)N2CCNC(=O)C2(C)C)c(NC(=O)Nc2cccc(Cl)c2Cl)s1 [Example 136, 1-[5-tert-Butyl-3-(2,2-dimethyl-3-oxo-piperazine-1-carbonyl)thiophen-2-yl]-3-(2,3-dichlorophenyl)urea]

Same assay, conditions: tested at 3 μM according to the procedure described above

protein kinase inhibition | Structure (SMILES)
0-25% | CC(C)(C)c1cc(C(=O)N2CCNC(=O)CC2)c(NC(=O)NC2CCNCC2)s1 [Example 120, 1-[5-tert-Butyl-3-(5-oxo-[1,4]diazepane-1-carbonyl)thiophen-2-yl]-3-piperidin-4-ylurea]
